Laboratory results published in publication PMC11784839, “Monoaminergic neurotransmitters are bimodal effectors of tau aggregation” (Science Advances, 2025).

Target: tau (Homo sapiens, UniProt P10636)
Assay: MCE Phenols Library screening, tau biosensor cell seeding assay (AvZ)
Assay type: cell-based
Conditions: for AvZ (average z score of seeding, SDs from the mean level of seeding): 10 μM phenol in cell cultures, AD brain homogenate preincubated 16 hours, two biological replicates, positive = catalyzes seeding, negative = inhibits; for Z repl 1 / Z Repl 2: Z score; for Z repl 1 / raw data 1: replicate 1; for Z Repl 2 / raw data 2: replicate 2; for av Z: average Z score of the two replicates
[1] = average puncta of the two replicates
[2] = tau biosensor seeding, MCE Phenols Library screen

Sequence of tau (P10636 623-695 limits assumed): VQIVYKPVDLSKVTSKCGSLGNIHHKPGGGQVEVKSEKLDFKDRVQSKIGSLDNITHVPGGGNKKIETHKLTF

| SMILES | AvZ (average z score of seeding, SDs from the mean level of seeding) | Z repl 1 | Z Repl 2 | av puncta (average of raw data 1 and 2) | raw data 1 (puncta) | raw data 2 (puncta) | av puncta [1] | raw data 1 (raw puncta) | raw data 2 (raw puncta) | av Z (MCE Phenols Library screen) | av Z [2] | av Z (tau seeding) |
| --- | --- | --- | --- | --- | --- | --- | --- | --- | --- | --- | --- | --- |
| COC(=O)c1ccccc1O [Methyl Salicylate] | -0.502 | -0.127 | -0.877 | – | 24825.4 | 3394.27 | 14109.8 | – | – | – | – | – |
| COC(=O)/C=C/c1ccc(O)c(O)c1 [Methyl caffeate] | -0.349 | -0.415 | -0.284 | – | – | – | 15550.1 | 21362.3 | 9737.92 | – | – | – |
| COc1ccc2c(c1OC)O[C@H]1c3ccc(O)cc3OC[C@@H]21 [Methylnissolin] | – | -0.257 | -1.004 | – | 23269.5 | 2047.37 | 12658.4 | – | – | -0.63 | – | – |
| O=C(O)[C@H]1O[C@@H](Oc2c(-c3ccc(O)c(O)c3)oc3cc(O)cc(O)c3c2=O)[C@H](O)[C@@H](O)[C@@H]1O [Miquelianin] | – | 1.087 | 0.729 | 29978.8 | 39402.1 | 20555.6 | – | – | – | – | 0.908 | – |
| CC(C)=CCc1c2c(c(O)c3c1O[C@]14C(=C[C@@H]5C[C@H]1C(C)(C)O[C@@]4(C/C=C(/C)C(=O)O)C5=O)C3=O)C=CC(C)(C)O2 [Morellic acid] | – | -0.656 | -0.586 | – | 18474.5 | 6511.03 | 12492.8 | – | – | -0.621 | – | – |
| CC(C)=CCc1c(-c2ccc(O)cc2O)oc2c3c(cc(O)c2c1=O)OC(C)(C)C=C3 [Morusin] | – | -0.601 | -0.306 | – | – | – | 14314.5 | 19129.3 | 9499.74 | -0.454 | – | – |
| COc1cc2oc(-c3ccccc3)cc(=O)c2c(O)c1OC [Mosloflavone] | – | 0.192 | 0.208 | 21820.5 | 28649.1 | 14991.8 | – | – | – | – | – | 0.2 |
| C=CCc1cc(OC)c(O[C@@H](C)[C@H](O)c2ccc(O)c(OC)c2)c(OC)c1 [Myrislignan] | – | 1.234 | 0.299 | 28560.9 | 41167.3 | 15954.5 | – | – | – | – | 0.766 | – |
| CC(=O)NCCc1c[nH]c2ccc(O)cc12 [N-Acetyl-5-hydroxytryptamine] | -0.235 | 0.285 | -0.756 | – | – | – | 17233.8 | 29776.2 | 4691.42 | – | – | – |
| CC(=O)N[C@@H](Cc1ccc(O)cc1)C(=O)O [N-Acetyl-L-tyrosine] | -0.474 | -0.073 | -0.875 | – | 25475.6 | 3423.63 | 14449.6 | – | – | – | – | – |
| O=C1C=CC(=O)c2c(O)ccc(O)c21 [Naphthazarin] | – | -0.196 | -0.791 | – | 23991 | 4318.06 | 14154.5 | – | – | -0.494 | – | – |
| O=C1N[C@@H]2C(=C[C@H](O)[C@@H](O)[C@H]2O)c2cc3c(c(O)c21)OCO3 [Narciclasine] | – | -2.127 | -0.234 | 5540.49 | 817.989 | 10263 | – | – | – | -1.181 | – | – |
| COc1ccc(CCC(=O)c2c(O)cc(O[C@@H]3O[C@H](CO)[C@@H](O)[C@H](O)[C@H]3O[C@@H]3O[C@@H](C)[C@H](O)[C@@H](O)[C@H]3O)cc2O)cc1O [Neohesperidin dihydrochalcone] | – | -0.172 | -0.225 | – | – | – | 17327.7 | 24288.2 | 10367.2 | -0.198 | – | – |
| C[C@@H]1O[C@@H](O[C@H]2C(=O)c3c(O)cc(O)cc3O[C@H]2c2ccc(O)c(O)c2)[C@H](O)[C@H](O)[C@H]1O [Neoisoastilbin] | – | 0.661 | 0.303 | 25148.1 | 34290.2 | 16006 | – | – | – | – | – | 0.482 |
| O=C(/C=C/c1ccc(O)cc1)c1ccc(O[C@@H]2O[C@H](CO)[C@@H](O)[C@H](O)[C@H]2O)cc1O [Neoisoliquiritin] | – | -0.046 | 0.369 | 21249.5 | 25794.8 | 16704.1 | – | – | – | – | – | 0.161 |

Now from value to compound, other results behind:

| AvZ (average z score of seeding, SDs from the mean level of seeding) | Z repl 1 | Z Repl 2 | av puncta (average of raw data 1 and 2) | raw data 1 (puncta) | raw data 2 (puncta) | av puncta [1] | raw data 1 (raw puncta) | raw data 2 (raw puncta) | av Z (MCE Phenols Library screen) | SMILES | av Z [2] | av Z (tau seeding) |
| --- | --- | --- | --- | --- | --- | --- | --- | --- | --- | --- | --- | --- |
| 0.258 | 0.5 | 0.017 | 22646.3 | 32350 | 12942.5 | – | – | – | – | COc1ccc(O)cc1 [Mequinol] | – | – |
| -0.61 | -0.457 | -0.762 | – | 20857.9 | 4624.75 | 12741.3 | – | – | – | COC(=O)Cc1ccc(O)cc1 [Methyl 4-hydroxyphenylacetate] | – | – |
| -1.311 | -1.727 | -0.895 | 4412 | 5612.12 | 3211.88 | – | – | – | – | COC(=O)c1cc(O)c(O)c(O)c1 [Methyl gallate] | – | – |
| – | -0.241 | -0.521 | – | – | – | 15329.6 | 23459.6 | 7199.56 | -0.381 | COC(=O)[C@@H](Cc1ccc(O)c(O)c1)OC(=O)/C=C/c1ccc(O)c(O)c1 [Methyl rosmarinate] | – | – |
| – | 0.972 | 0.582 | 28499.6 | 38015.5 | 18983.8 | – | – | – | – | COC(=O)c1c2c(c3ccccc3c1O)OC(C)(C)C=C2 [Mollugin] | 0.777 | – |
| – | 0.06 | -0.745 | – | – | – | 15938.9 | 27063.9 | 4813.92 | -0.343 | Oc1cc(O)cc(-c2cc3ccc(O)cc3o2)c1 [Moracin M] | – | – |
| – | -1.702 | -1.085 | 3543.97 | 5911.71 | 1176.23 | – | – | – | -1.394 | O=c1c(O)c(-c2ccc(O)cc2O)oc2cc(O)cc(O)c12 [Morin] | – | – |
| – | -0.183 | -0.34 | – | – | – | 16641.5 | 24150.5 | 9132.57 | -0.262 | OC[C@H]1O[C@@H](Oc2cc(O)cc(/C=C/c3ccc(O[C@@H]4O[C@H](CO)[C@@H](O)[C@H](O)[C@H]4O)cc3O)c2)[C@H](O)[C@@H](O)[C@@H]1O [Mulberroside A] | – | – |
| 0.955 | 0.959 | 0.951 | 30393 | 37867.4 | 22918.7 | – | – | – | – | NCC(c1ccc(O)cc1)C1(O)CCCCC1 (stereo not drawn) [N,N,O-Tridesmethylvenlafaxine] | – | – |
| -0.185 | 0.332 | -0.702 | 17799.1 | 30331 | 5267.16 | – | – | – | – | O=C(/C=C/c1ccc(O)cc1)NCCc1c[nH]c2ccc(O)cc12 [N-(p-Coumaroyl) Serotonin] | – | – |
| – | 0.249 | -0.653 | – | – | – | 17563.5 | 29338.6 | 5788.5 | -0.202 | COc1cc(-c2oc3cc(O)cc(O)c3c(=O)c2O[C@@H]2O[C@H](CO[C@@H]3O[C@@H](C)[C@H](O)[C@@H](O)[C@H]3O)[C@@H](O)[C@H](O)[C@H]2O)ccc1O [Narcissin] | – | – |
| – | -1.271 | -0.404 | 9770.58 | 11089.3 | 8451.87 | – | – | – | -0.838 | O=C(/C=C/c1ccc(O)cc1)c1c(O)cc(O)cc1O [Naringenin chalcone] | – | – |
| – | -1.009 | -0.535 | 10644.7 | 14234.4 | 7055.07 | – | – | – | -0.772 | COc1cc2oc(-c3ccccc3)cc(=O)c2c(O)c1O [Negletein] | – | – |
| – | 0.415 | -0.147 | 21263.5 | 31334.3 | 11192.7 | – | – | – | – | CC(C)=CCc1cc(-c2coc3cc(O)ccc3c2=O)ccc1O [Neobavaisoflavone] | – | 0.134 |
| – | -0.752 | -0.408 | – | 17326.7 | 8413.44 | 12870.1 | – | – | -0.58 | O=C(/C=C/c1ccc(O)c(O)c1)O[C@@H]1C[C@@](O)(C(=O)O)C[C@@H](O)[C@@H]1O [Neochlorogenic acid] | – | – |
| – | 1.202 | 0.25 | 28108.4 | 40782.2 | 15434.5 | – | – | – | – | COc1ccc(-c2cc(=O)c3c(O)cc(O[C@@H]4O[C@H](CO)[C@@H](O)[C@H](O)[C@H]4O[C@@H]4O[C@@H](C)[C@H](O)[C@@H](O)[C@H]4O)cc3o2)cc1O [Neodiosmin] | 0.726 | – |
| – | -0.356 | -0.555 | – | 22080.4 | 6836.97 | 14458.7 | – | – | -0.455 | O=C1C[C@@H](c2ccc(O)cc2)Oc2cc(O[C@@H]3O[C@H](CO)[C@@H](O)[C@H](O)[C@H]3O)ccc21 [Neoliquiritin] | – | – |
